Source: US10045529B2, “Quat cleaner with glycerin ether ethoxylates” (Ecolab USA Inc., priority 2012, dated 2018)

Tests used:
Gel formation with water = assay type: physicochemical
Description: The low foam profiles and low viscosity of the glycerin ether ethoxylate solfactants as shown in Examples 5 and 6 were further compared to gel curves of conventional ethoxylated alcohols (e.g. Tomadol surfactants). […]

[1] = Cloud point of solfactants in various solutions; assay type: physicochemical
Description: Various 2-Ethyl Hexanol Glycerin Ether Ethoxylate solfactants were produced using ethoxylation by a KOH Catalyst.
Further the cloud point data for the solfactants in various solutions is shown. The cloud point temperatures show the temperature above which a surfactant-rich phase separates from an aqueous solution. There is a clear relationship between the cloud point and the average EO content of the glycerin ether ethoxylate; as the ethylene oxide content of the solfactant increases, the cloud point and water solubility increase. As the carbon number on the molecule increases, a greater number of moles of ethylene oxide are required to be added to the molecule to retain the same cloud point.

[2] = Tergotometer detergency test on EMPA soiled swatches
Description: Laundry detergent compositions using 500 ppm sodium hydroxide (e.g. caustic) and the indicated conventional Surfonic® surfactant or the glycerin ether ethoxylate solfactant according to the invention were evaluated. A tergotometer test procedure was employed to measure detergency of test compositions according to the invention. A tergotometer along with 500 mL pots and water bath were employed. First, unwashed swatches from the lot numbers to be used in the test are read on the Konica Minolta Spectrophotometer model CM-3600d to establish the average initial (before washing) L value. A sampling of each swatch type is used. The desired wash temperature is programmed into the Tergotometer and its water bath is allowed to heat up to that temperature. 500 mL of the desired water type is added to each Tergotometer pot and allowed to equilibrate to the desired temperature.
The following standard, commercially available (EMPA) soiled swatches were used for baseline testing in the Examples, as shown in Table 9.
The test detergent compositions are weighed out and added to the Tergotometer pots. Various detergent compositions as shown in Tables 10-11 were employed under varying water conditions, including 5 grain water (Table 10) and 17 grain water (Table 11).
The detergent systems were agitated for 10 minutes to mix and dissolve in the water sources. The agitation/mixing speed RPM was adjusted to 200. The temperature of the detergent compositions dissolved in water was 60° C., unless indicated otherwise in the Figures/Examples set forth below. The swatches are added quickly to their respective pots in a left to right sequence in order to minimize differences in exposure time to the detergent systems. A wash run is completed for at least 10 minutes. At the end of the run, the swatches are removed from the pots quickly in a left to right sequence using a forceps and are transferred into 500 mL-1 liter of cool water to rinse. After rinsing with cold tap water, excess water from the swatches was removed by squeezing the swatches. The process was repeated with rinsing and squeezing excess water at least 2 more times. The swatches were air dried on a visa napkin or paper towel on the lab bench.
The swatches were then read on the HunterLab Color Quest and calculate % soil removal (i.e. whiteness) from the difference between the initial (before washing) L value and the final L value (after washing). Percent Soil Removal=(L after−L initial)/(96−L initial)*100 is represented as L*.

[3] = Glewwe foam meter foam height test; assay type: physicochemical; details: 50 ppm; for OBSERVATIONS (foam stability after pump stopped): after 5 minutes pump stopped; for Foam Height (in) @ 1 MIN / Foam Height (in) @ 5 MIN: city water 17 gpg, 140° F., 6 psi; for Foam Height (in) @ 1 MIN: 1 minute
Description: Foam testing was completed for the ethoxylated glycerine ether solfactants in comparison to commercially-available ethoxylated alcohols using a Glewwe foam meter. A Glewwe foam meter provides a dynamic foam test rather than a static test, which is considered more appropriate for simulation of industrial conditions. The equipment and general procedure for the Glewwe form test is described in U.S. Pat. Nos. 3,899,387 and 5,447,648, which are herein incorporated by reference in its entirety. The foam meter itself consists of a thermostated reservoir and a pump to recirculate the aqueous medium with foaming tendencies. The foam developed by the action of the aqueous stream impinging on the surface in the reservoir causes foam formation.
The foam heights of the tested compositions were determined using the following method. First 3000 mL of city water (e.g. 17 gpg) was filled into the Glewwe cylinder. The pump was turned on, pressure adjusted to 6 psi, and heated water to 140° F. The commercially available surfactant (or the solfactant according to the invention) was added at 50 ppm in the cylinder and the timer was started. Foam height was recorded at 1 minute and 5 minutes. After 5 minutes the pump was stopped and foam stability characteristics were observed. The cylinder was then drained, rinsed, and the methods repeated.

[4] = Glycerin Ether Ethoxylate %/Water % 10%/90%
[5] = 5 gpg water, 50 ppm, 500 ppm sodium hydroxide, 60° C., EMPA 116 (Blood, milk and ink, Cotton)
[6] = 5 gpg, 50 ppm, EMPA 101 (olive oil/carbon black, Cotton)
[7] = 5 gpg, 50 ppm, EMPA 104 (olive oil/carbon black, Cotton blend)
[8] = 5 gpg, 50 ppm, EMPA 106 (mineral oil, Cotton)
[9] = 5 gpg, 50 ppm, EMPA 111 (Pig blood, Cotton)
[10] = 5 gpg, 50 ppm, EMPA 114 (Red wine, Cotton)

Row | Substance | % removal EMPA 116 [2, 5] | % removal EMPA 101 [2, 6] | % removal EMPA 104 [2, 7] | % removal EMPA 106 [2, 8] | % removal EMPA 111 [2, 9] | % removal EMPA 114 [2, 10] | % removal EMPA 101 ([2]; 5 gpg, 100 ppm, EMPA 101) | % removal EMPA 104 ([2]; 5 gpg, 100 ppm, EMPA 104) | % removal EMPA 106 ([2]; 5 gpg, 100 ppm, EMPA 106) | % removal EMPA 111 ([2]; 5 gpg, 100 ppm, EMPA 111) | % removal EMPA 114 ([2]; 5 gpg, 100 ppm, EMPA 114) | % removal EMPA 116 ([2]; 5 gpg, 100 ppm, EMPA 116) | % removal EMPA 101 ([2]; 17 gpg, 50 ppm, EMPA 101) | % removal EMPA 104 ([2]; 17 gpg, 50 ppm, EMPA 104) | % removal EMPA 106 ([2]; 17 gpg, 50 ppm, EMPA 106) | % removal EMPA 111 ([2]; 17 gpg, 50 ppm, EMPA 111) | % removal EMPA 114 ([2]; 17 gpg, 50 ppm, EMPA 114) | % removal EMPA 116 ([2]; 17 gpg, 50 ppm, EMPA 116) | % removal EMPA 101 ([2]; 17 gpg, 100 ppm, EMPA 101) | % removal EMPA 104 ([2]; 17 gpg, 100 ppm, EMPA 104) | further results
1 | 2-Ethyl Hexanol Glycerin Ether Ethoxylate (3 moles) [2EHGE (3 EO)] | 34% | 45% | 49% | 60.8% | 50% | 1% | 29% | 25% | 50.39% | 48% | 0% | 29% | 17% | 15% | 14% | 29% | −2% | 15% | 19% | 13% | Gel Formation (Gel formation with water; 20%/80%): None; Gel Formation (Gel formation with water; 30%/70%): None; Gel Formation (Gel formation with water; 40%/60%): None; Gel Formation (Gel formation with water; 50%/50%): None; Gel Formation (Gel formation with water; 60%/40%): None; Gel Formation (Gel formation with water; 70%/30%): None; Gel Formation (Gel formation with water; 80%/20%): None; Gel Formation (Gel formation with water; 90%/10%): None; Gel Formation (Gel formation with water; [4]): None; Cloud Point Data 1% in 10% NaCl [1]: 33 °C; Cloud Point Data 1% in D.I. H2O ([1]; 1% in D.I. H2O): 50.5 °C; % removal EMPA 106 ([2]; 17 gpg, 100 ppm, EMPA 106): 9%; % removal EMPA 111 ([2]; 17 gpg, 100 ppm, EMPA 111): 27%; % removal EMPA 114 ([2]; 17 gpg, 100 ppm, EMPA 114): −1%; % removal EMPA 116 ([2]; 17 gpg, 100 ppm, EMPA 116): 16%; OBSERVATIONS (foam stability after pump stopped) [3]: Unstable - Breaks; Foam Height (in) @ 1 MIN [3]: 3.5 in; Foam Height (in) @ 5 MIN [3]: 4 in
2 | 2-Ethyl Hexanol Glycerin Ether Ethoxylate (5 moles) [2EHGE (5 EO)] | 30% | 40% | 48% | 59.51% | 48% | 2% | 29% | 23% | 49.62% | 45% | 1% | 28% | 19% | 15% | 13% | 30% | 0% | 17% | 21% | 19% | Gel Formation (Gel formation with water; 20%/80%): None; Gel Formation (Gel formation with water; 30%/70%): None; Gel Formation (Gel formation with water; 40%/60%): None; Gel Formation (Gel formation with water; 50%/50%): None; Gel Formation (Gel formation with water; 60%/40%): None; Gel Formation (Gel formation with water; 70%/30%): None; Gel Formation (Gel formation with water; 80%/20%): None; Gel Formation (Gel formation with water; 90%/10%): None; Gel Formation (Gel formation with water; [4]): None; Cloud Point Data 1% in 10% NaCl [1]: 71.5 °C; % removal EMPA 106 ([2]; 17 gpg, 100 ppm, EMPA 106): 11%; % removal EMPA 111 ([2]; 17 gpg, 100 ppm, EMPA 111): 41%; % removal EMPA 114 ([2]; 17 gpg, 100 ppm, EMPA 114): 0%; % removal EMPA 116 ([2]; 17 gpg, 100 ppm, EMPA 116): 20%; OBSERVATIONS (foam stability after pump stopped) [3]: Unstable - Breaks; Foam Height (in) @ 1 MIN [3]: 4 in; Foam Height (in) @ 5 MIN [3]: 4 in
3 | 2-Ethyl Hexanol Glycerin Ether Ethoxylate (7 moles) [2EHGE (7 EO)] | 33% | 38% | 47% | 59.88% | 52% | 1% | 25% | 17% | 46.8% | 49% | −3% | 19% | 20% | 15% | 11% | 32% | 0% | 16% | 20% | 17% | Gel Formation (Gel formation with water; 20%/80%): None; Gel Formation (Gel formation with water; 30%/70%): None; Gel Formation (Gel formation with water; 40%/60%): None; Gel Formation (Gel formation with water; 50%/50%): None; Gel Formation (Gel formation with water; 60%/40%): None; Gel Formation (Gel formation with water; 70%/30%): None; Gel Formation (Gel formation with water; 80%/20%): None; Gel Formation (Gel formation with water; 90%/10%): None; Gel Formation (Gel formation with water; [4]): None; Cloud Point Data 1% in 10% NaCl [1]: 78 °C; % removal EMPA 106 ([2]; 17 gpg, 100 ppm, EMPA 106): 9%; % removal EMPA 111 ([2]; 17 gpg, 100 ppm, EMPA 111): 35%; % removal EMPA 114 ([2]; 17 gpg, 100 ppm, EMPA 114): 0%; % removal EMPA 116 ([2]; 17 gpg, 100 ppm, EMPA 116): 17%; OBSERVATIONS (foam stability after pump stopped) [3]: Unstable - Breaks; Foam Height (in) @ 1 MIN [3]: 5 in; Foam Height (in) @ 5 MIN [3]: 4.5 in
4 | 2-Ethyl Hexanol Glycerin Ether Ethoxylate (1 mole) [2EHGE (1 EO)] | 26% | 27% | 26% | 50.77% | 49% | 0% | 29% | 21% | 48.73% | 52% | −1% | 27% | 19% | 14% | 6% | 32% | 0% | 17% | 18% | 15% | Cloud Point Data 10% in BDG Soln. ([1]; 10% in BDG Soln.): 59.5 °C; % removal EMPA 106 ([2]; 17 gpg, 100 ppm, EMPA 106): 7%; % removal EMPA 111 ([2]; 17 gpg, 100 ppm, EMPA 111): 30%; % removal EMPA 114 ([2]; 17 gpg, 100 ppm, EMPA 114): −1%; % removal EMPA 116 ([2]; 17 gpg, 100 ppm, EMPA 116): 17%; OBSERVATIONS (foam stability after pump stopped) [3]: Unstable - Breaks; Foam Height (in) @ 1 MIN [3]: 3 in; Foam Height (in) @ 5 MIN [3]: 3 in
